Reference: patent US20220135591A1, “HETEROCYCLIC COMPOUNDS AS INHIBITORS OF MONOACYLGLYCEROL LIPASE (MAGL)” (Hoffmann-La Roche Inc., priority 2019, published 2022)

The molecules below were run against T1, MAGL (Homo sapiens, UniProt Q99685) (assay: 2-AG assay: MAGL inhibitory activity by hydrolysis of 2-arachidonoylglycerol to arachidonic acid, mass spectrometry). Conditions: 2-AG assay (values marked [b]).
T1 sequence (Q99685 1-303): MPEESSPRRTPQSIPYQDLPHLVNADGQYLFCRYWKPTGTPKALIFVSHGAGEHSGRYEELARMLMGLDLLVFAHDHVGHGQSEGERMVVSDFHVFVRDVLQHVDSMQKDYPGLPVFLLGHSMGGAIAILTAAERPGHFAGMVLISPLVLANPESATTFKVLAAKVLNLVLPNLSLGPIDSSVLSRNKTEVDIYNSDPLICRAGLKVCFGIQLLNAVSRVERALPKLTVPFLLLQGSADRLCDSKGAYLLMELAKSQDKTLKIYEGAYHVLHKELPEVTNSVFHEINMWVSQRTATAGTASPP
Assay type: biochemical
Procedure, shortened: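 Hydrolysis of 8 μM 2-arachidonoylglycerol by […] was run for 30 min at RT after a 15 min compound preincubation, in Tris/EDTA/Tween buffer. Test compounds spanned […]. The product was measured by online SPE-MS/MS (transitions 303.1→259.1 and 311.1→267.0), and activity was derived from the arachidonic acid/d8-arachidonic acid signal ratio.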

Row | SMILES | IC50 [nM]
1 | Cc1cc(C(=O)N2CCN(c3nc4nc(Cl)ccc4o3)CC2)ccc1-c1cn(C(C)(C)C)nn1 [Example 257, (4-(1-(tert-butyl)-1H-1,2,3-triazol-4-yl)-3-methylphenyl)(4-(5-chlorooxazolo[4,5-b]pyridin-2-yl)piperazin-1-yl)methanone] | 58
2 | COC(C)(C)Cn1cc(-c2ccc(C(=O)N3CCN(c4nc5nc(Cl)ccc5o4)CC3)cc2)nn1 [Example 258, [4-(5-chlorooxazolo[4,5-b]pyridin-2-yl)piperazin-1-yl]-[4-[1-(2-methoxy-2-methyl-propyl)triazol-4-yl]phenyl]methanone] | 31
3 | CC(C)Cc1nnc(-c2ccc(C(=O)N3CCN(c4nc5nc(Cl)ccc5o4)CC3)cc2)o1 [Example 267, (4-(5-chlorooxazolo[4,5-b]pyridin-2-yl)piperazin-1-yl)(4-(5-isobutyl-1,3,4-oxadiazol-2-yl)phenyl)methanone] | 69
4 | CC(C)(C)Cn1cc(-c2ccc(C(=O)N3CCN(c4nc5nc(Cl)ccc5o4)CC3)cc2C(F)(F)F)nn1 [Example 268, (4-(5-chlorooxazolo[4,5-b]pyridin-2-yl)piperazin-1-yl)(4-(1-neopentyl-1H-1,2,3-triazol-4-yl)-3-(trifluoromethyl)phenyl)methanone] | 4
5 | CC(C)(C)Cn1ncc(-c2ccc(C(=O)N3CCN(c4nc5nc(Cl)ccc5o4)CC3)cc2C(F)(F)F)n1 [Example 269, (4-(5-chlorooxazolo[4,5-b]pyridin-2-yl)piperazin-1-yl)(4-(2-neopentyl-2H-1,2,3-triazol-4-yl)-3-(trifluoromethyl)phenyl)methanone] | 6
6 | CC(C)(C)Cn1nncc1-c1ccc(C(=O)N2CCN(c3nc4nc(Cl)ccc4o3)CC2)cc1C(F)(F)F [Example 270, (4-(5-chlorooxazolo[4,5-b]pyridin-2-yl)piperazin-1-yl)(4-(1-neopentyl-1H-1,2,3-triazol-5-yl)-3-(trifluoromethyl)phenyl)methanone] | 323
7 | Cc1cc(C(=O)N2CCN(c3nc4nc(Cl)ccc4o3)CC2)cnc1-c1cn(CC(C)(C)C)nn1 [Example 271, (4-(5-chlorooxazolo[4,5-b]pyridin-2-yl)piperazin-1-yl)(5-methyl-6-(1-neopentyl-1H-1,2,3-triazol-4-yl)pyridin-3-yl)methanone] | 74
8 | Cc1cc(C(=O)N2CCN(c3nc4nc(Cl)ccc4o3)CC2)cnc1-c1cnn(CC(C)(C)C)n1 [Example 272, (4-(5-chlorooxazolo[4,5-b]pyridin-2-yl)piperazin-1-yl)(5-methyl-6-(2-neopentyl-2H-1,2,3-triazol-4-yl)pyridin-3-yl)methanone] | 9
9 | C[C@@H]1CN(C(=O)c2ccc(-c3cn(CC(C)(C)C)nn3)cc2)CCN1c1nc2nc(Cl)ccc2o1 [Example 273, [(3R)-4-(5-chlorooxazolo[4,5-b]pyridin-2-yl)-3-methyl-piperazin-1-yl]-[4-[1-(2,2-dimethylpropyl)triazol-4-yl]phenyl]methanone] | 20
10 | C[C@H]1CN(C(=O)c2ccc(-c3cn(CC(C)(C)C)nn3)cc2)CCN1c1nc2nc(Cl)ccc2o1 [Example 274, [(3S)-4-(5-chlorooxazolo[4,5-b]pyridin-2-yl)-3-methyl-piperazin-1-yl]-[4-[1-(2,2-dimethylpropyl)triazol-4-yl]phenyl]methanone] | 137
11 | CC(C)(C)c1nc(-c2ccc(C(=O)N3CC4CCC(C3)N4c3nc4nc(Cl)ccc4o3)cc2)no1 [Example 284, [4-(5-tert-butyl-1,2,4-oxadiazol-3-yl)phenyl]-[8-(5-chlorooxazolo[4,5-b]pyridin-2-yl)-3,8-diazabicyclo[3.2.1]octan-3-yl]methanone] | 350

Next, values leading:

Row | IC50 [nM] | SMILES
12 | 26 | Cc1cc(C(=O)N2CCN(c3nc4nc(Cl)ccc4o3)CC2)ccc1-c1nnc(CC(C)C)o1 [Example 275, [4-(5-chlorooxazolo[4,5-b]pyridin-2-yl)piperazin-1-yl]-[4-(5-isobutyl-1,3,4-oxadiazol-2-yl)-3-methyl-phenyl]methanone]
13 | 1520 | O=C(c1ccc(OCC2(C(F)(F)F)CC2)nc1Cl)N1CCN(c2nc3nc(Cl)ccc3o2)CC1 [Example 276, [4-(5-chlorooxazolo[4,5-b]pyridin-2-yl)piperazin-1-yl]-[2-chloro-6-[[1-(trifluoromethyl)cyclopropyl]methoxy]-3-pyridyl]methanone]
14 | 9 | Cc1ccc2oc(N3CCN(C(=O)c4ccc(-c5nnn(CC(C)(C)C)n5)cc4)CC3)nc2n1 [Example 277, (4-(5-methyloxazolo[4,5-b]pyridin-2-yl)piperazin-1-yl)(4-(2-neopentyl-2H-tetrazol-5-yl)phenyl)methanone]
15 | 801 | CC(C)(C)c1nnc(-c2ncc(C(=O)N3CCN(c4nc5nc(Cl)ccc5o4)CC3)cc2F)o1 [Example 278, [6-(5-tert-butyl-1,3,4-oxadiazol-2-yl)-5-fluoro-3-pyridyl]-[4-(5-chlorooxazolo[4,5-b]pyridin-2-yl)piperazin-1-yl]methanone]
16 | 11 | CC(C)(C)Cn1cc(-c2ncc(C(=O)N3CCN(c4nc5nc(Cl)ccc5o4)CC3)cc2C(F)(F)F)cn1 [Example 279, [4-(5-chlorooxazolo[4,5-b]pyridin-2-yl)piperazin-1-yl]-[6-[1-(2,2-dimethylpropyl)pyrazol-4-yl]-5-(trifluoromethyl)-3-pyridyl]methanone]
17 | 119 | CC(C)(CF)c1nnc(-c2ccc(C(=O)N3CCN(c4nc5nc(Cl)ccc5o4)CC3)cc2F)o1 [Example 280, [4-(5-chlorooxazolo[4,5-b]pyridin-2-yl)piperazin-1-yl]-[3-fluoro-4-[5-(2-fluoro-1,1-dimethyl-ethyl)-1,3,4-oxadiazol-2-yl]phenyl]methanone]
18 | 36 | CC(C)(C)c1nnc(-c2ccc(C(=O)N3CCN(c4nc5nc(Cl)ccc5o4)CC3)cc2F)o1 [Example 281, [4-(5-tert-butyl-1,3,4-oxadiazol-2-yl)-3-fluoro-phenyl]-[4-(5-chlorooxazolo[4,5-b]pyridin-2-yl)piperazin-1-yl]methanone]
19 | 11 | Cc1ccc2oc(N3CCN(C(=O)c4cnc(-c5cnn(CC(C)(C)C)c5)c(C(F)(F)F)c4)CC3)nc2n1 [Example 282, [6-[1-(2,2-dimethylpropyl)pyrazol-4-yl]-5-(trifluoromethyl)-3-pyridyl]-[4-(5-methyloxazolo[4,5-b]pyridin-2-yl)piperazin-1-yl]methanone]
20 | 3 | CC(C)(C)Cn1nnc(-c2ccc(C(=O)N3CCN(c4nc5nc(Cl)ccc5o4)CC3)cc2)n1 [Example 283, (4-(5-chlorooxazolo[4,5-b]pyridin-2-yl)piperazin-1-yl)(4-(2-neopentyl-2H-tetrazol-5-yl)phenyl)methanone]
21 | 2050 | CC(C)(C)Cn1cc(-c2ccc(C(=O)N3CCN(c4nc5nc(Cl)ccc5o4)C(CO)C3)cc2)nn1 (stereo not shown) [Example 285, [4-(5-chlorooxazolo[4,5-b]pyridin-2-yl)-3-(hydroxymethyl)piperazin-1-yl]-[4-[1-(2,2-dimethylpropyl)triazol-4-yl]phenyl]methanone]
22 | 45 | CC(C)(C)Cn1cc(-c2ccc(C(=O)N3CCN(c4nc5nc(F)ccc5o4)CC3)cc2)nn1 [Example 286, [4-[1-(2,2-dimethylpropyl)triazol-4-yl]phenyl]-[4-(5-fluorooxazolo[4,5-b]pyridin-2-yl)piperazin-1-yl]methanone]
